Measurements reported in US11117947B2, “Double-acylated GLP-1 derivatives” (Novo Nordisk A/S, priority 2011, dated 2021).
Numbered stars: 1 amine (or outer) side, 2 acyl side, 3 side chain; on linkers, the order of the positions; unused ones are H or OH. Side chains are listed from the residue outwards. Peptide text beside a SMILES is read from it. * marks the point of attachment. Decanoyl(10-(4-HOOC-PhO)) = O=C(O)c1ccc(OCCCCCCCCCC(=O)*)cc1; γGlu = O=C(O)[C@H](CCC(=O)[*:2])N[*:1]; C14 diacid = O=C(O)CCCCCCCCCCCCC(=O)*; AEEA = NCCOCCOCC(=O)O

Experiments:
Format in all cases: in vivo
[1] = Pharmacokinetics in rat: half-life after i.v. administration; details: plasma, iv, 6 nmol/kg, male Sprague Dawley rats, approximately 4 rats per group, read-out: t½/h (half-life in rat) (converted)
Method: In vivo pharmacokinetic studies in rats were performed with the GLP-1 derivatives of Examples 2, 10, 17-18, and 31, as described in the following. Semaglutide was included for comparison.
Male Sprague Dawley rats of same age with a body weight of approximately 400 g were obtained from Taconic (Denmark) and assigned to the treatments by simple randomisation on body weight, approximately 4 rats per group, so that all animals in each group were of similar body weight.
The GLP-1 derivatives (approximately 6 nmol/ml) were dissolved in 50 mM sodium phosphate, 145 mM sodium chloride, 0.05% tween 80, pH 7.4. Intravenous injections (1.0 ml/kg) of the compounds were given through a catheter implanted in the right jugular vein. Blood was sampled from vena sublingualis for 5 days post dosing. Blood samples (200 μl) were collected in EDTA buffer (8 mM) and then centrifuged at 4° C. and 10000 G for 5 minutes. Plasma samples were kept at −20° C. until analyzed for plasma concentration of the respective GLP-1 compound.
The plasma concentrations of the GLP-1 compounds were determined using a Luminescence Oxygen Channeling Immunoasssay (LOCI), generally as described for the determination of insulin by Poulsen and Jensen in Journal of Biomolecular Screening 2007, vol. 12, p. 240-247. The donor beads were coated with streptavidin, while acceptor beads were conjugated with a monoclonal antibody recognising a mid-/C-terminal epitope of the peptide. Another monoclonal antibody, specific for the N-terminus, was biotinylated. The three reactants were combined with the analyte and formed a two-sited immuno-complex. Illumination of the complex released singlet oxygen atoms from the donor beads, which were channeled into the acceptor beads and triggered chemiluminescence which was measured in an Envision plate reader. The amount of light was proportional to the concentration of the compound.
Plasma concentration-time profiles were analyzed using Phoenix WinNonLin ver. 6.2, Pharsight Inc., Mountain View, Calif., USA), and the half-life (T1/2) calculated using individual plasma concentration-time profiles from each animal.

[2] = Estimate of oral bioavailability: gut injection in rat (caprate), exposure in plasma; details: injection in jejunum, 1000 uM in 55 mg/ml sodium caprate, plasma concentration (pM) at 30 min divided by dosing solution concentration (μM), mean n=4
Summary of the method: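 Male Sprague Dawley rats (~240 g, n=4) received 100 μl of 1000 uM derivative in 55 mg/ml sodium caprate by catheter into proximal or mid jejunum. Tail-vein EDTA plasma was sampled up to 240 min. Peptide was quantified by two-antibody bead chemiluminescence immunoassay, giving mean concentration-time profiles (pmol/l).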

[3] = Half-life in minipigs after i.v. administration; details: minipig, plasma, iv, male Göttingen minipigs, read-out: terminal half-life (converted)
Source text: By terminal half-life is generally meant the period of time it takes to halve a certain plasma concentration, measured after the initial distribution phase.

Structure (SMILES) | half-life [1] [h] | Dose-corrected exposure at 30 min [2] | half-life [3] [h]
CC[C@H](C)[C@H](NC(=O)[C@H](Cc1ccccc1)NC(=O)[C@H](CCCCNC(=O)COCCOCCNC(=O)COCCOCCNC(=O)CC[C@H](NC(=O)CCCCCCCCCCCCC(=O)O)C(=O)O)NC(=O)[C@H](CCCNC(=N)N)NC(=O)[C@@H](NC(=O)[C@H](C)NC(=O)[C@H](CCC(=O)O)NC(=O)[C@H](CCC(=O)O)NC(=O)[C@H](CCC(=O)O)NC(=O)[C@H](CC(C)C)NC(=O)[C@H](Cc1ccc(O)cc1)NC(=O)[C@H](CO)NC(=O)[C@H](CO)NC(=O)[C@@H](NC(=O)[C@H](CC(=O)O)NC(=O)[C@H](CO)NC(=O)[C@@H](NC(=O)[C@H](Cc1ccccc1)NC(=O)[C@@H](NC(=O)CNC(=O)[C@H](CCC(=O)O)NC(=O)[C@H](C)NC(=O)[C@@H](N)Cc1c[nH]cn1)[C@@H](C)O)[C@@H](C)O)C(C)C)C(C)C)C(=O)N[C@@H](C)C(=O)N[C@@H](Cc1c[nH]cn1)C(=O)N[C@@H](CC(C)C)C(=O)N[C@H](C(=O)N[C@@H](CCC(N)=O)C(=O)NCC(=O)N[C@@H](CCCNC(=N)N)C(=O)N[C@@H](CCCCNC(=O)COCCOCCNC(=O)COCCOCCNC(=O)CC[C@H](NC(=O)CCCCCCCCCCCCC(=O)O)C(=O)O)C(=O)O)C(C)C [Example 17, N^ε27-[2-[2-[2-[[2-[2-[2-[[(4S)-4-carboxy-4-(13-carboxytridecanoylamino)butanoyl]amino]ethoxy]ethoxy]acetyl]amino]ethoxy]ethoxy]acetyl], N^ε37-[2-[2-[2-[[2-[2-[2-[[(4S)-4-carboxy-4-(13-carboxytridecanoylamino)butanoyl]amino]ethoxy]ethoxy]acetyl]amino]ethoxy]ethoxy]acetyl]-[Glu^22,Glu^23,Val^25,Arg^26,Lys^27,His^31,Gln^34,Lys^37]-GLP-1-(7-37)-peptide] (H-HAEGTFTSDVSSYLEEEAVRK([AEEA-AEEA-γGlu-C14 diacid])FIAHLVQGRK([AEEA-AEEA-γGlu-C14 diacid])-OH; N-terminus and C-terminus assumed) | 10 | 168 | –
CC[C@H](C)[C@H](NC(=O)[C@H](Cc1ccccc1)NC(=O)[C@H](CCCCNC(=O)COCCOCCNC(=O)COCCOCCNC(=O)CC[C@H](NC(=O)CCCCCCCCCOc1ccc(C(=O)O)cc1)C(=O)O)NC(=O)[C@H](Cc1c[nH]cn1)NC(=O)[C@H](C)NC(=O)[C@H](C)NC(=O)[C@H](CCC(N)=O)NC(=O)CNC(=O)[C@H](CCC(=O)O)NC(=O)[C@H](CC(C)C)NC(=O)[C@H](Cc1ccc(O)cc1)NC(=O)[C@H](CO)NC(=O)[C@H](CO)NC(=O)[C@@H](NC(=O)[C@H](CC(=O)O)NC(=O)[C@H](CO)NC(=O)[C@@H](NC(=O)[C@H](Cc1ccccc1)NC(=O)[C@@H](NC(=O)CNC(=O)[C@H](CCC(=O)O)NC(=O)[C@H](C)NC(=O)[C@@H](N)Cc1c[nH]cn1)[C@@H](C)O)[C@@H](C)O)C(C)C)C(=O)N[C@@H](CCC(=O)O)C(=O)N[C@@H](Cc1c[nH]c2ccccc12)C(=O)N[C@@H](CC(C)C)C(=O)N[C@H](C(=O)N[C@@H](CCCNC(=N)N)C(=O)NCC(=O)N[C@@H](CCCCNC(=O)COCCOCCNC(=O)COCCOCCNC(=O)CC[C@H](NC(=O)CCCCCCCCCOc1ccc(C(=O)O)cc1)C(=O)O)C(=O)NCC(=O)N[C@@H](CCC(=O)O)C(=O)O)C(C)C [Example 10, N^ε27-[2-[2-[2-[[2-[2-[2-[[(4S)-4-carboxy-4-[10-(4-carboxyphenoxy)decanoylamino]butanoyl]amino]ethoxy]ethoxy]acetyl]amino]ethoxy]ethoxy]acetyl], N^ε36-[2-[2-[2-[[2-[2-[2-[[(4S)-4-carboxy-4-[10-(4-carboxyphenoxy)decanoylamino]butanoyl]amino]ethoxy]ethoxy]acetyl]amino]ethoxy]ethoxy]acetyl]-[His^26,Lys^27,Glu^30,Arg^34,Lys^36]-GLP-1-(7-37)-peptidyl-Glu] (H-HAEGTFTSDVSSYLEGQAAHK([AEEA-AEEA-γGlu-Decanoyl(10-(4-HOOC-PhO))])FIEWLVRGK([AEEA-AEEA-γGlu-Decanoyl(10-(4-HOOC-PhO))])GE-OH; N-terminus and C-terminus assumed) | 23 | 187 | –
CC[C@H](C)[C@H](NC(=O)[C@H](Cc1ccccc1)NC(=O)[C@H](CCCCNC(=O)COCCOCCNC(=O)COCCOCCNC(=O)CC[C@H](NC(=O)CCCCCCCCCOc1ccc(C(=O)O)cc1)C(=O)O)NC(=O)[C@H](CCCNC(=N)N)NC(=O)[C@H](C)NC(=O)[C@H](C)NC(=O)[C@H](CCC(N)=O)NC(=O)[C@H](CCC(=O)O)NC(=O)[C@H](CCC(=O)O)NC(=O)[C@H](CC(C)C)NC(=O)[C@H](Cc1ccc(O)cc1)NC(=O)[C@H](CO)NC(=O)[C@H](CO)NC(=O)[C@@H](NC(=O)[C@H](CC(=O)O)NC(=O)[C@H](CO)NC(=O)[C@@H](NC(=O)[C@H](Cc1ccccc1)NC(=O)[C@@H](NC(=O)CNC(=O)[C@H](CCC(=O)O)NC(=O)[C@H](C)NC(=O)[C@@H](N)Cc1c[nH]cn1)[C@@H](C)O)[C@@H](C)O)C(C)C)C(=O)N[C@@H](CCC(=O)O)C(=O)N[C@@H](Cc1c[nH]c2ccccc12)C(=O)N[C@@H](CC(C)C)C(=O)N[C@H](C(=O)N[C@@H](CCCNC(=N)N)C(=O)NCC(=O)N[C@@H](CCCCNC(=O)COCCOCCNC(=O)COCCOCCNC(=O)CC[C@H](NC(=O)CCCCCCCCCOc1ccc(C(=O)O)cc1)C(=O)O)C(=O)NCC(=O)N[C@@H](CCC(=O)O)C(=O)NCC(=O)O)C(C)C [Example 2, N^ε27-[2-[2-[2-[[2-[2-[2-[[(4S)-4-carboxy-4-[10-(4-carboxyphenoxy)decanoylamino]butanoyl]amino]ethoxy]ethoxy]acetyl]amino]ethoxy]ethoxy]acetyl], N^ε36-[2-[2-[2-[[2-[2-[2-[[(4S)-4-carboxy-4-[10-(4-carboxyphenoxy)decanoylamino]butanoyl]amino]ethoxy]ethoxy]acetyl]amino]ethoxy]ethoxy]acetyl]-[Glu^22,Arg^26,Lys^27,Glu^30,Arg^34,Lys^36]-GLP-1-(7-37)-peptidyl-Glu-Gly] (H-HAEGTFTSDVSSYLEEQAARK([AEEA-AEEA-γGlu-Decanoyl(10-(4-HOOC-PhO))])FIEWLVRGK([AEEA-AEEA-γGlu-Decanoyl(10-(4-HOOC-PhO))])GEG-OH; N-terminus and C-terminus assumed) | 26 | 98 | 87
